{"source": "paper PMC6021032", "about": "“Antimycobacterial activity of nitrogen heterocycles derivatives: 7-(pyridine-4-yl)-indolizine derivatives. Part VII^8–12” (Journal of Enzyme Inhibition and Medicinal Chemistry, 2017)", "key": {"[1]": {"tested_on": "Mycobacterium tuberculosis H37Rv", "test": "Primary screen (Cycle 1): MIC, IC50, IC90 under aerobic conditions", "format": "cell-based"}, "[2]": {"tested_on": "M. tuberculosis H37Rv", "test": "Cycle 2 repeat of MIC, IC50, IC90 under aerobic conditions (lower starting concentrations)", "format": "cell-based, Mycobacterium tuberculosis", "conditions": "Mycobacterium tuberculosis, revaluation"}, "[3]": {"tested_on": "Mtb H37Rv", "test": "LORA parallel plates, oxygen-deprived bacteria incubated under aerobic conditions (normal oxygen)", "format": "cell-based, Mycobacterium tuberculosis", "conditions": "Mycobacterium tuberculosis, H37RV"}, "[4]": {"tested_on": "Mycobacterium avium", "test": "MIC against nontuberculous mycobacteria (Alamar blue)", "format": "cell-based", "conditions": "M. avium"}, "[5]": {"tested_on": "Mycobacterium abscessus", "test": "MIC, IC50, IC90 against nontuberculous mycobacteria (OD590)", "format": "cell-based", "conditions": "M. abscessus"}, "[6]": {"test": "Caco-2 permeability assay", "conditions": "human, Caco-2", "procedure": "The Caco-2 cell layer permeability assay is widely used as a more predictive in vitro model of absorption through the intestinal epithelium. […] For B–A permeability, test compound was added to the basal side of the Caco-2 monolayer and the transport of the compound to the apical side monitored. The amount of compound present in each compartment was quantified by LC-MS/MS.\nrecovered and analyzed by LC-MS/MS.\n3.2. Caco-2 Permeability Assay\nfeeding at 2-day intervals.\nEach experiment included the\ncontained transport buffer at pH 7.4.\n3.3. Cytochrome P450 Inhibition Assay\nand was < 0.2%. Samples were run in duplicate. Compounds were incubated with human liver"}, "[7]": {"target": "T1, CYP3A4 (Homo sapiens, UniProt P08684)", "T1 construct": "Compounds were incubated with human liver; from tissue; host or cells: human liver microsomes", "T1 sequence (P08684 whole entry)": "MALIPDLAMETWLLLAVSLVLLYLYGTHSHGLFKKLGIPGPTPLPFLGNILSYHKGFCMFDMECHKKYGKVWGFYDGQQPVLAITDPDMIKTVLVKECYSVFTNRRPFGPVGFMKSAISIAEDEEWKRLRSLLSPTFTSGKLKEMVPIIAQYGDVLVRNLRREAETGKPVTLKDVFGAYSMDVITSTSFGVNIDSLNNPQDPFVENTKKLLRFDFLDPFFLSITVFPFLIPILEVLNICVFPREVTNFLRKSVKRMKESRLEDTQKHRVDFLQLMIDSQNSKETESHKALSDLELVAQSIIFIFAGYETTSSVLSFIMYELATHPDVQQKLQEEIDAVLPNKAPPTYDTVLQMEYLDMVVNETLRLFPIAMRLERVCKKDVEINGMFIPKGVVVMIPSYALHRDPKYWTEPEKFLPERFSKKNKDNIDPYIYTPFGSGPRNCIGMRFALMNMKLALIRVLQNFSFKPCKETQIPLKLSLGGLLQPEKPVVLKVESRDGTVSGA", "test": "Cytochrome P450 inhibition in human liver microsomes", "format": "in vitro ADME"}, "[8]": {"target": "T2, CYP2C9 (Homo sapiens, UniProt P11712)", "T2 construct": "Compounds were incubated with human liver; from tissue; host or cells: human liver microsomes", "T2 sequence (P11712 whole entry)": "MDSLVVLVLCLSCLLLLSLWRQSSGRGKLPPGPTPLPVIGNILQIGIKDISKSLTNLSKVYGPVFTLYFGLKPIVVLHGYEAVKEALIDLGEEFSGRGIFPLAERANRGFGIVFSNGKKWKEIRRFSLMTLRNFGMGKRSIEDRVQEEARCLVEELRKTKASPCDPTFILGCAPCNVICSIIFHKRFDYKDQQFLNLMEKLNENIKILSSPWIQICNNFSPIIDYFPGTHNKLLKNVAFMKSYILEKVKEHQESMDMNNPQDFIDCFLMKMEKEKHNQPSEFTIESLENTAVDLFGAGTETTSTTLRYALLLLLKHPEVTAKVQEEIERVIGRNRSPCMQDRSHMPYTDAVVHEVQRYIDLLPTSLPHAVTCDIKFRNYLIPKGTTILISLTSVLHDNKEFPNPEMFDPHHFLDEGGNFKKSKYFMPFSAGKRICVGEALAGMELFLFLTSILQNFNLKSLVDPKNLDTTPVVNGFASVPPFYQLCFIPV", "test": "Cytochrome P450 inhibition in human liver microsomes", "format": "in vitro ADME"}, "[9]": {"target": "T3, CYP2D6 (Homo sapiens, UniProt P10635)", "T3 construct": "Compounds were incubated with human liver; from tissue; host or cells: human liver microsomes", "T3 sequence (P10635 whole entry)": "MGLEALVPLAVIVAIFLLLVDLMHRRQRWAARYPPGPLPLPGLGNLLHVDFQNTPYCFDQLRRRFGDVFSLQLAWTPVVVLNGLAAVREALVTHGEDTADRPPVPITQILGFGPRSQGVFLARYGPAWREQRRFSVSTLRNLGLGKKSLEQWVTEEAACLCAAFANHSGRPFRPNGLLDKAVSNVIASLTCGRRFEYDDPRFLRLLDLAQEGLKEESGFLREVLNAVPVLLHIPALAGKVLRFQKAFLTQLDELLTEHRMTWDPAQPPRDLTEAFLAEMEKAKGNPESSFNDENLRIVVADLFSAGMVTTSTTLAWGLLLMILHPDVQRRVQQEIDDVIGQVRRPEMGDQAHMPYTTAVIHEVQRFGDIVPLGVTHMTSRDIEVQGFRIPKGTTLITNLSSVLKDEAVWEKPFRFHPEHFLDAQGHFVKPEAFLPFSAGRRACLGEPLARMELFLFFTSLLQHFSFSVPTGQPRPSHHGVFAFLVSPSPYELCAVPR", "test": "Cytochrome P450 inhibition in human liver microsomes", "format": "in vitro ADME"}, "[10]": {"target": "T4, CYP2C8 (Homo sapiens, UniProt P10632)", "T4 construct": "Compounds were incubated with human liver; from tissue; host or cells: human liver microsomes", "T4 sequence (P10632 1-490)": "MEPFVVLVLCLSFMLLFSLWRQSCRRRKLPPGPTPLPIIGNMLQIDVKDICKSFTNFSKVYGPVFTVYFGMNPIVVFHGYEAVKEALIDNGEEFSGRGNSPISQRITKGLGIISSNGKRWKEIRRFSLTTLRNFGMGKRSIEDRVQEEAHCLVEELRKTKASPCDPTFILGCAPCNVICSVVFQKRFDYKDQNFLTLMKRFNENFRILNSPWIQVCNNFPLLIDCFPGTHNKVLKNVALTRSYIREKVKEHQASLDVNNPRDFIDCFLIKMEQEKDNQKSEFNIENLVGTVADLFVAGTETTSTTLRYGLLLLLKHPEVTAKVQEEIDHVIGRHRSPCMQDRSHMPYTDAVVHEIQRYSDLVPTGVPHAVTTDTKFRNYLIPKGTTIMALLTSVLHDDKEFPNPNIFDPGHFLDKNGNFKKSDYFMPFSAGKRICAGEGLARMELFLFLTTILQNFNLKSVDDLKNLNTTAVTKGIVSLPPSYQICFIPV", "test": "Cytochrome P450 inhibition in human liver microsomes", "format": "in vitro ADME"}, "[11]": {"target": "T5, CYP2B6 (Homo sapiens, UniProt P20813)", "T5 construct": "Compounds were incubated with human liver; from tissue; host or cells: human liver microsomes", "T5 sequence (P20813 1-491)": "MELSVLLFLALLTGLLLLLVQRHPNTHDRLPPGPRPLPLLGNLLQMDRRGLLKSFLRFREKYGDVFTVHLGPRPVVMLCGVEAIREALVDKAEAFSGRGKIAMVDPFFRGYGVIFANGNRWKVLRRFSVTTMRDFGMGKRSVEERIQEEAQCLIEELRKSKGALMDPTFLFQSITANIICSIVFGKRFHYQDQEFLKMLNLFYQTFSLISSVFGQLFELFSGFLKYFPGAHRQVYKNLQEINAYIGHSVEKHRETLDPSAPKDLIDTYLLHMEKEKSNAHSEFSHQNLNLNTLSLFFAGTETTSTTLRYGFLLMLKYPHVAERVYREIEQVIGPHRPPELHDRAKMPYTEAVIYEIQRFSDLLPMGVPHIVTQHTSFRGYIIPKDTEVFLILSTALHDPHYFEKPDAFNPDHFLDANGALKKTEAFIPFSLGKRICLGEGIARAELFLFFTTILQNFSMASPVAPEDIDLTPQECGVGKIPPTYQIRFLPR", "test": "Cytochrome P450 inhibition in human liver microsomes", "format": "in vitro ADME"}, "[12]": {"target": "T6, CYP2C19 (Homo sapiens, UniProt P33261)", "T6 construct": "Compounds were incubated with human liver; from tissue; host or cells: human liver microsomes", "T6 sequence (P33261 whole entry)": "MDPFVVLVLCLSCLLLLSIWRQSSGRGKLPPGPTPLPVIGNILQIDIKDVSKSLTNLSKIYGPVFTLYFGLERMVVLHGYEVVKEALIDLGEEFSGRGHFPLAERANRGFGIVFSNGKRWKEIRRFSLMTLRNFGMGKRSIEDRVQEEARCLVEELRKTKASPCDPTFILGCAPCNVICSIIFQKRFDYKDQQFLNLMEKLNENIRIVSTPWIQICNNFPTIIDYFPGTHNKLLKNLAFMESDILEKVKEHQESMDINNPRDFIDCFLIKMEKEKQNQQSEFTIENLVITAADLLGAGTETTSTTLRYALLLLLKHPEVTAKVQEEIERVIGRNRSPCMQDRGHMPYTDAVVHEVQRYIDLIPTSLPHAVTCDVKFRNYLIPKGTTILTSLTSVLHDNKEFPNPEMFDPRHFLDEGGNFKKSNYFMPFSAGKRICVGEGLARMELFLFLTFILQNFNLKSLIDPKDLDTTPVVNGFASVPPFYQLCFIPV", "test": "Cytochrome P450 inhibition in human liver microsomes", "format": "in vitro ADME"}, "[13]": {"test": "in vitro", "conditions": "human", "description": "The stability of compound is expressed as a function of time[41]^,[42]\n3.4. In vitro Microsomal Stability Assay\ncompound to detect NADPH-free degradation. Verapamil and dextromethorphan were\nincluded as control compounds."}, "[14]": {"tested_on": "human liver cells (HepG2)", "test": "HepG2 cytotoxicity (CellTiter-Glo)", "format": "cell-based", "conditions": "read-out: IC50 (50% loss of viability), 72 h"}, "[15]": {"test": "Plasma protein binding by equilibrium dialysis"}, "[16]": {"test": "Cytotoxicity, THP-1 cell viability (CellTiter-Glo)", "conditions": "human"}, "[17]": {"conditions": "Mycobacterium tuberculosis, M. tuberculosis H37Rv, aerobic conditions, primary screen"}}, "note": "Where two headings read alike, the source gives them in different places."}
{"smiles": "CCOC(=O)c1cc(C(=O)c2ccc(Cl)cc2)n2ccc(-c3cc[n+](CC(=O)c4ccc(C)cc4)cc3)cc12", "note": "[Compound 6i]", "values": [{"measurement": "MIC", "setting": "[1]; M. tuberculosis H37Rv, aerobic conditions, primary screen", "value": 8.0, "unit": "µM"}, {"measurement": "MIC", "setting": "[1]; MIC value taken from the first MIC assay", "value": 8, "unit": "µM"}, {"measurement": "IC50", "setting": "[1]; [17]", "value": 7.2, "unit": "µM"}, {"measurement": "IC90", "setting": "[1]; [17]", "value": 8.2, "unit": "µM"}, {"measurement": "MIC", "setting": "[1]; [17]", "value": 8, "unit": "µM"}, {"measurement": "IC50", "setting": "[2]; aerobic", "value": 9.8, "unit": "µM"}, {"measurement": "IC90", "setting": "[2]; aerobic", "value": 17, "unit": "µM"}, {"measurement": "MIC", "setting": "[2]; repeated at lower starting concentrations, read-out: MIC aerobic condition", "value": 16, "unit": "µM"}, {"measurement": "IC50", "setting": "[3]", "value": 6.5, "unit": "µM"}, {"measurement": "IC90", "setting": "[3]", "value": 28, "unit": "µM"}, {"measurement": "MIC", "setting": "[3]; 120 h, oxygen-deprived bacteria, aerobic 5 d", "value": 140, "unit": "µM"}, {"measurement": "MIC", "setting": "[4]", "value": 50, "unit": "µM"}, {"measurement": "MIC", "setting": "[4]; Mycobacterium avium", "value": 50, "unit": "µM"}, {"measurement": "MIC", "setting": "[5]", "value": "showed activity"}, {"measurement": "IC50", "setting": "[5]; Mycobacteroides abscessus", "value": 14, "unit": "µM"}, {"measurement": "IC90", "setting": "[5]; Mycobacteroides abscessus", "value": 23, "unit": "µM"}, {"measurement": "MIC", "setting": "[5]; Mycobacteroides abscessus, read-out: MIC", "value": 25, "unit": "µM"}, {"measurement": "Papp B→A", "setting": "[6]", "value": 1.3, "unit": "×10⁻⁶ cm/s"}, {"measurement": "efflux ratio", "setting": "[6]", "value": 1.7}, {"measurement": "IC50 CYP3A4-Midazolam", "setting": "[7]; probe substrate midazolam", "value": "moderate inhibition"}, {"measurement": "IC50", "setting": "[7]; probe substrate midazolam, read-out: IC50 CYP3A4-Midazolam", "value": 0.48, "unit": "µM"}, {"measurement": "IC50 CYP3A4-Testosterone", "setting": "[7]; probe substrate testosterone", "value": "high inhibition"}, {"measurement": "IC50", "setting": "[7]; probe substrate testosterone, read-out: IC50 CYP3A4-Testosterone", "value": 0.081, "unit": "µM"}, {"measurement": "IC50", "setting": "[8]", "value": "> 5", "unit": "µM"}, {"measurement": "IC50", "setting": "[9]", "value": "> 5", "unit": "µM"}, {"measurement": "IC50", "setting": "[10]", "value": "> 5", "unit": "µM"}, {"measurement": "IC50", "setting": "[11]", "value": "> 5", "unit": "µM"}, {"measurement": "IC50", "setting": "[12]", "value": "> 5", "unit": "µM"}, {"measurement": "NADPH-dependent CLint", "setting": "[13]; s9", "value": "very highly cleared"}, {"measurement": "microsomal CLint at 1 μM", "setting": "[13]; s9, NADPH-dependent CLint", "value": 369, "unit": "µL/min/mg"}, {"measurement": "half-life at 1 μM", "setting": "[13]; s9, NADPH-dependent T1/2", "value": 6.3, "unit": "min"}, {"measurement": "microsomal CLint at 1 μM", "setting": "[13]; s9, NADPH-free CLint", "value": "< 12.8", "unit": "µL/min/mg"}, {"measurement": "half-life at 1 μM", "setting": "[13]; s9, NADPH-free T1/2", "value": "> 180", "unit": "min"}, {"measurement": "IC50", "setting": "[14]", "value": 7, "unit": "µM"}, {"measurement": "Mean plasma fraction bound", "setting": "[15]; Human plasma, 5 µM, 4 h at 37 °C", "value": "strongly bound"}, {"measurement": "fraction unbound at 4 h, 5 µM", "setting": "[15]; human, human plasma, 5 µM, 4 h at 37 °C", "value": 0.003}, {"measurement": "fraction unbound at 4 h, 5 µM", "setting": "[15]; human, human plasma, Mean plasma fraction unbound, 5 µM, 4 h at 37 °C", "value": 0.0035}, {"measurement": "recovery at 4 h, 5 µM", "setting": "[15]; human, human plasma, dialysed against PBS in a RED device", "value": 48.7, "unit": "%"}, {"measurement": "IC50 at 3 days", "setting": "[16]", "value": 3.8, "unit": "µM"}]}
